Data: patent US20250049924A1, “Abuse-Deterrent Pharmaceutical Composition with Aversion Properties” (AARDVARK THERAPEUTICS INC., priority 2022, published 2025)

How the values were obtained:
[1] = tested on: bitter taste receptors in the oral cavity, including the tongue; assay: volunteer snorting experiment with DA in saline (granules or neat powder); assay type: in vivo, human
Description: One brave co-inventor attempted to “snort” a formulation of DA in either a granule form having talc as an excipient as DA is provided in clinical trials (Aardvark Therapeutics, Inc phase 1 and 2 studies for obesity) for oral administration in a capsule designed to prevent DA material from exposure to bitter taste receptors in the oral cavity, including the tongue. In a first round of “dose escalation” of a saline having DA in granules starting around […] of DA (wherein a granule weighs about 0.1 mg including the talc based excipients) in the volume of liquid snorted, it took a dose of around 0.1 mg DA (10 granules). The three attempts were 1 granule, 5 granules and lastly 10 granules. […] This sensation peaked around 15-20 min, and lasted about an hour. Was certainly annoying and not pleasant.
In view of the results with a granule formulation of DA, the day before filing this patent application, the co-inventor volunteer tried the snorting experiment again, but this time, using neat DA that was a powder dissolved in saline. Just one “snort” was attempted of 1 mg of DA in saline. It should be noted that the completed clinical trials of DA used a dose of 200 mg of DA taken orally in a capsule that dissolves in the stomach, avoiding mouth exposure. The report from our volunteer indicated: “Just snorted 1.0 mg of ARD-101 [DA] API [active pharmaceutical ingredient] . . . OMG.
So terrible. […] Like with the granules, there is no immediate aversive sensation. Maybe around minute 7-8 after snorting dose, the bitterness became apparent, with peak effect starting around minute 10-15. […] Drinking water almost makes it worse!
It's been over 30 min since the snorting and the bitterness has hardly diminished. If I ate breakfast, I might have vomited already.
A later text read: “It's been almost 6 hours and I still taste it. Bleh.”

[2] = systemic exposure of DA after oral administration (completed clinical trials and preclinical studies)
Source text: This is in contrast to a controlled substance, such as an amphetamine, which is known to provide a bolus dose to the brain to provider a “high” experience for the drug abuser. This allows a drug abuser, snorting the disclosed formulation to experience a bolus dose of the controlled substance for a “high” while simultaneously, or shortly thereafter, experience a disgusting, revolting, vomit-inducing, sickening (but not life-threatening) massively unpleasant experience from the aversive agent, such as DA.
DB is commercially available but has not been developed for pharmaceutical use. However, DA has been used as an active pharmaceutical agent as a bitter receptor agonist, not as an aversive, in formulations that avoid oral cavity exposure.

[3] = tested on: rats; assay: animal toxicology studies, DA orally by gavage, behaviour; assay type: in vivo; settings: oral gavage by less skilled technicians
[4] = systemic (intravenous) administration of DA, NOAEL; assay type: in vivo; settings: systemic administration (i.e., intravenous administration)
[5] = DA granules in saline, around 0.1 mg DA (10 granules)
[6] = neat DA powder dissolved in saline, 1 mg, one snort

CC(=O)[O-].CC[N+](CC)(CC(=O)Nc1c(C)cccc1C)Cc1ccccc1 [DA, Denatonium acetate]
dose of DA that it took for an effect in dose escalation ([1]; DA granules (talc excipient) in saline, snorted, attempts of 1, 5 and 10 granules): about 0.1 mg | duration of sensation [1, 5]: about an hour | nausea or vomiting [1, 5]: did not elicit nausea or vomiting | sensation after snorting [1, 5]: extremely bitter taste in the back of my throat and posterior portion of my tongue | time of peak of sensation [1, 5]: 15 to 20 min | time to noticing the bitter taste [1, 5]: ≤ 10 min | effect compared with the granules ([1]; neat DA 1 mg versus granules snorted before): significantly and measurably more disgusting | deterrence of snorting, volunteer's judgement ([1]; neat DA powder dissolved in saline, 1 mg): measurable deterrent to snorting | sensation after snorting [1, 6]: extreme bitterness in the back of the throat and the posterior tongue | start of peak effect [1, 6]: 10 to 15 min | time after snorting at which bitterness became apparent [1, 6]: 7 to 8 min | time after snorting at which it is still tasted [1, 6]: ~6 h | time since snorting at which bitterness has hardly diminished [1, 6]: over 30 min | part of the dose administered found systemically ([2]; oral administration): less than 1% | pharmacokinetics, distribution after oral exposure ([2]; oral exposure): substantially gut restricted | behavior of the animals on gavage [3]: highly aversive and desperate behavior | NOAEL (no adverse effect level) [4]: high
